The values below come from patent US9351974B2, “Substituted pteridinones for the treatment of cancer” (OSI Pharmaceuticals, LLC, priority 2011, dated 2016).

Some results are limits rather than exact numbers.

The assay has as its target T1, His-tagged full-length RSK2 (RPS6KA3) (Homo sapiens, UniProt P51812).
T1 construct: His-tagged full-length RSK2 (RPS6KA3, Invitrogen PV3323); His; purchased Invitrogen PV3323
In words: RSK2 Omnia Assay for compound IC50 determination. The assay is classed as biochemical. The note with it: ATP 15 μM, n=2, read-out: Mean RSK2 Biochem IC50. How it is done: RSK1 & RSK2 Omnia Assay Protocol for Compound IC50 Determination
The Omnia Assay (Invitrogen) has been optimized for His-tagged full length RSK1 (RPS6KA1, Millipore 14-509) and for His-tagged full-length RSK2 (RPS6KA3, Invitrogen PV3323). In this assay system, Omnia ST Peptide 6 (Invitrogen KNZ1061) functions as a substrate for RSK1 or RSK2. Phosphorylation of this SOX-containing peptide results in an increase in fluorescence at 485 nm upon excitation at 360 nm.
Assays are carried out in 384-well OptiPlates (Perkin Elmer 6007290) in a total volume of 20 μL containing RSK1 ([…]) or RSK2 ([…]), Omnia ST Peptide 6 (5 μM), ATP (15 μM, Km=16.3 μM), and test compound (variable) in RSK assay buffer (50 mM HEPES, pH 7.5, 10 mM MgCl2, 0.01% Tween-20, 1% glycerol, 1 mM DTT, 1 mM EGTA, 0.01% BSA) with 1% DMSO.
IC50s for test compounds are typically determined using an 11-point three-fold serial dilution with a final assay concentration ranging either from 170 μM to […] or from 17 μM to […]. All compound concentrations are assayed in duplicate. Initial compound dilutions are prepared at 100× concentration in 100% DMSO from a 10 mM stock solution. Compounds are further diluted 1:25 in assay buffer resulting in a 4× concentrated solution.
To run the assay 5 μL of the above 4× concentrated compound solution (or 4% DMSO for positive controls) is added to the assay plate followed by 5 μL of a solution containing peptide (20 μM) and ATP (60 μM) in assay buffer. The reaction is initiated by the addition of 10 μL of RSK1 ([…]) or RSK2 ([…]) in assay buffer, or assay buffer alone for negative controls. The increase in fluorescence due to peptide phosphorylation is monitored continuously as a function of time using a Spectramax M5 plate reader (Molecular Devices) equipped with SoftMax Pro software.
The slopes from the linear portion of progress curves are used to determine IC50 values by non-linear curve-fitting to a four-parameter equation using GraphPad Prism (GraphPad Software, Inc.) or XLFit (IDBS). IC50's are determined in duplicate (n=2) and Ki values are calculated from IC50 values using the Cheng-Prusoff equation assuming a competitive mode of inhibition.

T1 sequence (P51812 whole entry): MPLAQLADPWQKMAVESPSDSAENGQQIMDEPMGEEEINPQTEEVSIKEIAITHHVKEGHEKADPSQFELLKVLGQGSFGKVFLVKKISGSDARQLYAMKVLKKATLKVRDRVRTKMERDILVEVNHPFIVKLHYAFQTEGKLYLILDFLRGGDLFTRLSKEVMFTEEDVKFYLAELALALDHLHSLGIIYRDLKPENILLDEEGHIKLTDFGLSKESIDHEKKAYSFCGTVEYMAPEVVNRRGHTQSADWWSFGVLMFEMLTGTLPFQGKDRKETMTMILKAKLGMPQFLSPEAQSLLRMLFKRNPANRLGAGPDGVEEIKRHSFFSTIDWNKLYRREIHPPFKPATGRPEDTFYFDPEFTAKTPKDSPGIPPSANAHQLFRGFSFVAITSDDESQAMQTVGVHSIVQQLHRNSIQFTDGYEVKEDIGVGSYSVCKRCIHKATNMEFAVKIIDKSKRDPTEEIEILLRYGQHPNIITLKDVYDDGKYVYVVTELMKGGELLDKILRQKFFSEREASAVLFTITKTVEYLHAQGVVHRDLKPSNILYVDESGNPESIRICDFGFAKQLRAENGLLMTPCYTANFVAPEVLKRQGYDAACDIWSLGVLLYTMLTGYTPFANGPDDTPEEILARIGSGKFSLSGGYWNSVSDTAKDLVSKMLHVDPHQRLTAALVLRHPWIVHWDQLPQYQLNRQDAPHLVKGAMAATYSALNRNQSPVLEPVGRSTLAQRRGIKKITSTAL

Take `CC1C(=O)N(c2ccccc2)c2cnc(Nc3ccc4[nH]ncc4c3)nc2N1C1CCCCC1` (stereo not shown) [Example 61, 8-cyclohexyl-2-(1H-indazol-5-ylamino)-7-methyl-5-phenyl-7,8-dihydropteridin-6(5H)-one]: the IC50 was not above 100 nM.

In the case of `C[C@@H]1C(=O)N(c2cccc(C#N)c2)c2cnc(Nc3ccc4c(c3)CS(=O)(=O)N4)nc2N1[C@H]1CC[C@H](C)CC1` [compound 250, 3-[(7R)-2-[(2,2-dioxido-1,3-dihydro-2,1-benzothiazol-5-yl)amino]-7-methyl-8-(trans-4-methylcyclohexyl)-6-oxo-7,8-dihydropteridin-5(6H)-yl]benzonitrile], the IC50 was in the range of 100 to 1000 nM.

With `COc1ccc(N2C(=O)[C@@H](C)N(C3CCCCC3)c3nc(NCCc4cn[nH]c4)ncc32)cc1OC` [compound 170], the IC50 was more than 1000 nM.

Regarding `C[C@@H]1C(=O)N(c2ccc(N3CCOCC3)nc2)c2cnc(Nc3cc(F)c4[nH]ncc4c3)nc2N1C1CCC(C)(C)CC1` [Example 213, (7R)-8-(4,4-dimethylcyclohexyl)-2-[(7-fluoro-1H-indazol-5-yl)amino]-7-methyl-5-[6-(morpholin-4-yl)pyridin-3-yl]-7,8-dihydropteridin-6(5H)-one], the IC50 was not above 100 nM.

With `CC[C@@H]1C(=O)N(c2cccc(C#N)c2)c2cnc(Nc3ccc4[nH]ncc4c3)nc2N1C1CCCC1` [compound 140, 3-[(7R)-8-cyclopentyl-7-ethyl-2-(1H-indazol-5-ylamino)-6-oxo-7,8-dihydropteridin-5(6H)-yl]benzonitrile], the IC50 is not above 100 nM.

Consider `COc1cc(F)cc(N2C(=O)[C@@H](C)N(C3CCCCC3)c3nc(Nc4ccc5[nH]ncc5c4)ncc32)c1` [compound 99, (7R)-8-cyclohexyl-5-(3-fluoro-5-methoxyphenyl)-2-(1H-indazol-5-ylamino)-7-methyl-7,8-dihydropteridin-6(5H)-one], for which the IC50 is not above 100 nM.

Regarding `C[C@@H]1C(=O)N(c2ccc3ccccc3c2)c2cnc(Nc3ccc4[nH]ncc4c3)nc2N1C1CCCCC1` [Example 45, (7R)-8-cyclohexyl-2-(1H-indazol-5-ylamino)-7-methyl-5-(naphthalen-2-yl)-7,8-dihydropteridin-6(5H)-one], the IC50 was not above 100 nM.

As to `CC(C)CCn1c(=O)c(=O)n(-c2ccccc2)c2cnc(Nc3ccc4[nH]ncc4c3)nc21` [Example 305, 2-(1H-indazol-5-ylamino)-8-(3-methylbutyl)-5-phenyl-5,8-dihydropteridine-6,7-dione], the IC50 is more than 1000 nM.

`C[C@@H]1C(=O)N(c2cccc(C#N)c2)c2cnc(Nc3ccc4[nH]nc(C#N)c4c3)nc2N1C1CCCCC1` [compound 157, 5-{[(7R)-5-(3-cyanophenyl)-8-cyclohexyl-7-methyl-6-oxo-5,6,7,8-tetrahydropteridin-2-yl]amino}-1H-indazole-3-carbonitrile]: the IC50 lay within 100 to 1000 nM.

`COc1ccc(N2C(=O)[C@@H](C)N(C3CCC4(CC3)CC4)c3nc(Nc4cc(F)c5[nH]ncc5c4)ncc32)cc1OC` [Example 299, (7R)-5-(3,4-dimethoxyphenyl)-2-[(7-fluoro-1H-indazol-5-yl)amino]-7-methyl-8-(spiro[2.5]oct-6-yl)-7,8-dihydropteridin-6(5H)-one]: the IC50 is not above 100 nM.

For the compound `CC[C@@H]1C(=O)N(c2ccc(N3CCOCC3)nc2)c2cnc(Nc3cc(F)c4[nH]ncc4c3)nc2N1C1CCCCC1` [compound 292, (7R)-8-cyclohexyl-7-ethyl-2-[(7-fluoro-1H-indazol-5-yl)amino]-5-[6-(morpholin-4-yl)pyridin-3-yl]-7,8-dihydropteridin-6(5H)-one], the IC50 was not above 100 nM.

For `CC(C)CCN1c2nc(Nc3ccc(CC(=O)N(C)C)cc3)ncc2N(c2ccccc2)C(=O)C1C` (stereo not shown) [Example 6, N,N-dimethyl-2-(4-{[7-methyl-8-(3-methylbutyl)-6-oxo-5-phenyl-5,6,7,8-tetrahydropteridin-2-yl]amino}phenyl)acetamide], the IC50 lay within 100 to 1000 nM.

As to `CC[C@@H]1C(=O)N(c2ccc(OC)c(OC)c2)c2cnc(Nc3cc(F)c4[nH]ncc4c3)nc2N1C1CCCCC1` [compound 289, (7R)-8-cyclohexyl-5-(3,4-dimethoxyphenyl)-7-ethyl-2-[(7-fluoro-1H-indazol-5-yl)amino]-7,8-dihydropteridin-6(5H)-one], the concentration for half-maximal inhibition (IC50) is not above 100 nM.

On to `CCOc1ccc(N2C(=O)[C@@H](C)N(C3CCOCC3)c3nc(Nc4cc(F)c5[nH]c(=O)oc5c4)ncc32)cc1C#N` [compound 204, 2-Ethoxy-5-[(7R)-2-[(4-fluoro-2-oxo-2,3-dihydro-1,3-benzoxazol-6-yl)amino]-7-methyl-6-oxo-8-(tetrahydro-2H-pyran-4-yl)-7,8-dihydropteridin-5(6H)-yl]benzonitrile], for which the IC50 was not above 100 nM.

With `C[C@@H]1C(=O)N(c2cccc(C#N)c2)c2cnc(Nc3ccc4[nH]ncc4n3)nc2N1C1CCCCC1` [compound 167, 3-[(7R)-8-cyclohexyl-7-methyl-6-oxo-2-(1H-pyrazolo[4,3-b]pyridin-5-ylamino)-7,8-dihydropteridin-5(6H)-yl]benzonitrile], the IC50 was in the range of 100 to 1000 nM.

As to `COc1ccc(N2C(=O)[C@@H](C)N(C3CCCCC3)c3nc(Nc4cc(F)c5[nH]ncc5c4)ncc32)cc1C#N` [compound 136, 5-[(7R)-8-cyclohexyl-2-[(7-fluoro-1H-indazol-5-yl)amino]-7-methyl-6-oxo-7,8-dihydropteridin-5(6H)-yl]-2-methoxybenzonitrile], the IC50 was not above 100 nM.

In the case of `C[C@H]1C(=O)N(c2ccccc2)c2cnc(Nc3ccc4[nH]ncc4c3)nc2N1C1CCCCC1` [Example 62, (7S)-8-cyclohexyl-2-(1H-indazol-5-ylamino)-7-methyl-5-phenyl-7,8-dihydropteridin-6(5H)-one], the IC50 lay within 100 to 1000 nM.

For the compound `C[C@@H]1C(=O)N(c2ccccc2)c2cnc(Nc3ccc4[nH]ncc4c3)nc2N1CC1CCCCC1` [Example 72, (7R)-8-(cyclohexylmethyl)-2-(1H-indazol-5-ylamino)-7-methyl-5-phenyl-7,8-dihydropteridin-6(5H)-one], the IC50 was not above 100 nM.

Take `C[C@@H]1C(=O)N(c2cccc(C#N)c2)c2cnc(Nc3ccc4[nH]ncc4c3F)nc2N1C1CCCCC1` [compound 100, 3-[(7R)-8-cyclohexyl-2-[(4-fluoro-1H-indazol-5-yl)amino]-7-methyl-6-oxo-7,8-dihydropteridin-5(6H)-yl]benzonitrile]: the IC50 was not above 100 nM.

Regarding `C[C@@H]1C(=O)N(c2cccc(C#N)c2)c2cnc(Nc3ccc4[nH]c(=O)oc4c3)nc2N1C1CCCCC1` [compound 149, 3-[(7R)-8-cyclohexyl-7-methyl-6-oxo-2-[(2-oxo-2,3-dihydro-1,3-benzoxazol-6-yl)amino]-7,8-dihydropteridin-(6H)-yl]benzonitrile], the IC50 is not above 100 nM.

On to `CC(C)N1c2nc(Nc3ccc4c(c3)CC(=O)N4)ncc2N(c2ccccc2)C(=O)C1C` (stereo not shown) [Example 94, 7-methyl-2-[(2-oxo-2,3-dihydro-1H-indol-5-yl)amino]-5-phenyl-8-(propan-2-yl)-7,8-dihydropteridin-6(5H)-one], for which the IC50 is 100 to 1000 nM.

With `C[C@@H]1C(=O)N(c2ccc(F)c(F)c2)c2cnc(Nc3ccc4[nH]ncc4c3)nc2N1C1CCCCC1` [Example 49, (7R)-8-cyclohexyl-5-(3,4-difluorophenyl)-2-(1H-indazol-5-ylamino)-7-methyl-7,8-dihydropteridin-6(5H)-one], the IC50 is not above 100 nM.

On to `C[C@@H]1C(=O)N(c2cccc(C#N)c2)c2cnc(Nc3ccc(C(N)=O)c(F)c3)nc2N1C1CCC(F)(F)CC1` [compound 272, 4-{[(7R)-5-(3-cyanophenyl)-8-(4,4-difluorocyclohexyl)-7-methyl-6-oxo-5,6,7,8-tetrahydropteridin-2-yl]amino}-2-fluorobenzamide], for which the IC50 was not above 100 nM.

In the case of `C[C@@H]1C(=O)N(c2cccc(C#N)c2)c2cnc(Nc3cc(F)c4[nH]ncc4c3)nc2N1C1CCCC1` [Example 219, 3-[(7R)-8-cyclopentyl-2-[(7-fluoro-1H-indazol-5-yl)amino]-7-methyl-6-oxo-7,8-dihydropteridin-5(6H)-yl]benzonitrile], the IC50 was not above 100 nM.

`C[C@@H]1C(=O)N(c2ccc(N3CCN(C)CC3)c(C#N)c2)c2cnc(Nc3cnc4[nH]ncc4c3)nc2N1[C@H]1CC[C@H](C)CC1` [compound 252, 5-[(7R)-7-methyl-8-(trans-4-methylcyclohexyl)-6-oxo-2-(1H-pyrazolo[3,4-b]pyridin-5-ylamino)-7,8-dihydropteridin-5(6H)-yl]-2-(4-methylpiperazin-1-yl)benzonitrile]: the IC50 was not above 100 nM.
